US10537583B2, “Oral formulation of A-nor-5α androstane compound” (priority 2014, dated 2020)
Like-named read-outs stand apart in the source and are kept apart here.

Tests used:
[1] = system: Caco-2 cells
Procedure: The qualified Transwell plate was taken. The nutrient solution comprising drugs was prepared by using Hank's balanced salt solution (HBSS) to study the bidirectional transfer of A-nor-5α-androstane compounds (Ia) with different concentrations in Caco-2 cells.

[2] = for Ka (absorption rate constant) / P (cumulative absorption percentage) / Q (absorption dose in 2 hours): n = 3
Procedure: A suitable concentration of intestinal circulating liquid comprising A-nor-5α-androstane compounds (Ia) was prepared by using PBS (pH 5.5 and pH 6.8) containing phenol red. Rats were fasting over 12 hours before the experiment and then subjected to intraperitoneal injection with urethane solution (dose 4 mL/kg) at a concentration of 0.3 g/ml for anesthesia. The rats were fixed and a 3 cm incision was made along the medioventral line. The duodenum (start from 1 cm below the pyloru, intestinal circulating fluid comprising A-nor-5α androstane compound, pH 5.5), the jejunum (start from […], intestinal circulating fluid comprising A-nor-5α androstane compound, pH 6.8), and the ileum (start from 30 cm below the pylorus, intestinal circulating fluid comprising A-nor-5α androstane compound, pH 6.8) were incubated and ligated. Preheated saline (37° C.) was used to clean the intestinal contents, and then the air (37° C.) was ventilated into the intestine to remove the saline. The wound was covered with dressing, and infrared lamp was used to keep warm (37° C.). The reflux device was connected and after 50 ml of drug-containing circulating fluid at a constant temperature of 37° C. was balanced at 3 mL/min for 5 min, timing was started when the flow rate was adjusted to 1 mL/ml. Samples (1 mL for each) were taken at 0, 15, 30, 45, 60, 90, and 120 min, while adding blank circulating fluid (1 mL). The sample was subjected to HPLC analysis after appropriate treatment. The volume of circulating fluid was corrected according to the concentration of phenol red. Then the remained amounts of drug X were calculated by the concentration of A-nor-5α androstane compounds and the volume of circulating fluid. Line slope is the absorption rate constant (Ka) of a drug. The cumulative absorption percentage (P) of the drug is obtained by comparing the absorption dose (Q) of a drug in 2 hours to the initial dose (X0) before absorption.

[3] = system: Caco-2 cells; remark: listed apart in the source
Procedure: Caco-2 cells were spotted on a six-well plate. When the cells were grown to an inoculation density of 8×10^4 cells/mL, the cells were cultured with the drug-containing medium. The relationship between cells uptake and uptake time, the concentration of A-nor-5α-androstane compound (Ia) were examined. After the experiment was completed, the cells were scraped off and the cells were broken by multiple freezing-thawing. The samples of the cells were precipitated by acetonitrile and then subjected to HPLC analysis.

[4] = 37° C., 72 hours, n = 3
Procedure: Phosphate buffer solution (PBS) with different pH was prepared (pH is 1.0, 5.0, 5.5, 5.8, 6.0, 6.8 and 7.4). The equilibrium solubility of A-nor-5α androstane compounds (Ia) in PBS with different pH was determined by using Equilibrium Method. Method: 5 mL of each medium was removed into test tubes with plug and about 30 mg of crude drugs comprising A-nor-5α androstane compounds were added into the tubes respectively. The tubes were subjected to a thermostatic oscillator (37° C.) and vibrated at 100 rpm. After 72 hours, the sample was taken and subjected to HPLC analysis.

[5] = Text: It mainly relies on passive diffusion mechanism for transport, uptake and absorb in the body and the uptake amounts are dependent on the time and dose. A-nor-5α-androstane compound can be administered by oral pathway. […] Therefore, an oral formulation, such as ordinary oral tablet, oral capsule and other sustained-release preparation, is designed according to the present invention.
[6] = n-octanol, 37° C., n = 3
Procedure: PBS with different pH was prepared, and oil-water partition coefficient of A-nor-5α androstane compound (Ia) in a buffer solution with different pH (e.g., 2.0, 4.5, 5.0, 6.0, 6.8, 7.4, respectively) was determined by shake-flask method. Water-saturated n-octanol was used to prepare a stock solution of A-nor-5α androstane compound, concentration of which was about 10 mg/mL. A variety of n-octanol-saturated PBS and aqueous solution (5 ml) was taken and added into glass tubes with plug. 0.5 mL of stock solution of A-nor-5α-androstane compound was added. The tubes were sealed completely and subjected to a 37° C. thermostatic oscillator, and sampled after shaking for 24 h. Samples from water phase and oil phase were taken for analysis by HPLC, respectively. The drug concentrations in water and oil phase were calculated. According to […], oil-water partition coefficient (Log P) was calculated and the results are shown in Table 2.

[7] = Beagle dogs, 1.0 mg/kg by gastric gavage
[8] = rat duodenum, circulating fluid pH 5.5
[9] = rat ileum, circulating fluid pH 6.8
[10] = rat jejunum, circulating fluid pH 6.8
[11] = rat jejunum, concentration 25.0 μg/mL
[12] = rat jejunum, concentration 50.0 μg/mL
[13] = rat jejunum, concentration 100.0 μg/mL

C#C[C@@]1(O)C[C@@H]2CC[C@@H]3[C@H](CC[C@@]4(C)[C@H]3CC[C@@]4(O)C#C)[C@@]2(C)C1 [Ia, 2α, 17α-diethynyl-A-nor-5α-androstane-2β, 17β-dihydroxy compound]
apparent permeability coefficient (Papp) ([1]; all Papps under various conditions): > 1 ×10⁻⁶ cm/s | ER (efflux rate) ([1]; concentration 0.5 mg/mL): 1.94 | Papp A-B ([1]; concentration 0.5 mg/mL): 2.59 ± 0.17 ×10^−6 cm/s | Papp B-A ([1]; concentration 0.5 mg/mL): 5.02 ± 0.50 ×10^−6 cm/s | ER (efflux rate) ([1]; concentration 0.75 mg/mL): 1.62 | Papp A-B ([1]; concentration 0.75 mg/mL): 4.00 ± 0.15 ×10^−6 cm/s | Papp B-A ([1]; concentration 0.75 mg/mL): 6.46 ± 0.71 ×10^−6 cm/s | ER (efflux rate) ([1]; concentration 1.0 mg/mL): 1.82 | Papp A-B ([1]; concentration 1.0 mg/mL): 4.98 ± 0.16 ×10^−6 cm/s | Papp B-A ([1]; concentration 1.0 mg/mL): 9.07 ± 0.35 ×10^−6 cm/s | Ka (absorption rate constant) [2, 8]: 4.27 ± 1.53 ×10^−3 min | P (cumulative absorption percentage) [2, 8]: 45.48 ± 9.33% | Q (absorption dose in 2 hours) [2, 8]: 324.42 ± 65.21 μg/2 h | Ka (absorption rate constant) [2, 9]: 7.57 ± 2.56 ×10^−3 min | P (cumulative absorption percentage) [2, 9]: 65.23 ± 11.80% | Q (absorption dose in 2 hours) [2, 9]: 1603.03 ± 289.37 μg/2 h | Ka (absorption rate constant) [2, 10]: 9.53 ± 4.22 ×10^−3 min | P (cumulative absorption percentage) [2, 10]: 71.68 ± 13.48% | Q (absorption dose in 2 hours) [2, 10]: 1809.26 ± 369.52 μg/2 h | Ka (absorption rate constant) [2, 11]: 18.87 ± 2.94 ×10^−3 min | P (cumulative absorption percentage) [2, 11]: 90.27 ± 3.28% | Q (absorption dose in 2 hours) [2, 11]: 1063.39 ± 75.81 μg/2 h | Ka (absorption rate constant) [2, 12]: 9.53 ± 4.22 ×10^−3 min | P (cumulative absorption percentage) [2, 12]: 71.68 ± 13.48% | Q (absorption dose in 2 hours) [2, 12]: 1809.26 ± 369.52 μg/2 h | Ka (absorption rate constant) [2, 13]: 5.50 ± 0.36 ×10^−3 min | P (cumulative absorption percentage) [2, 13]: 53.25 ± 2.77% | Q (absorption dose in 2 hours) [2, 13]: 2636.52 ± 137.86 μg/2 h | relationship between absorption and concentration ([2]; rat jejunum, y=20.34x+649.7, r=0.9869): good linear relationship | absorption percentages ([2]; rat, both jejunum and ileum): > 50% | relationship of uptake amounts with uptake time ([3]; Y=0.204x+6.107, r=0.9952): linear relationship with the uptake time | relationship of uptake amounts with concentration ([3]; y=40.59x−10.47, r=0.9994): linear relationship with the concentration | equilibrium solubility ([4]; pH 1.0 hydrochloric acid): 7.85 ± 0.57 µg/mL | equilibrium solubility ([4]; pH 5.0 PBS): 14.73 ± 0.80 µg/mL | equilibrium solubility ([4]; pH 5.5 PBS): 45.73 ± 0.23 µg/mL | equilibrium solubility ([4]; pH 5.8 PBS): 70.52 ± 1.28 µg/mL | equilibrium solubility ([4]; pH 6.0 PBS): 144.54 ± 0.77 µg/mL | equilibrium solubility ([4]; pH 6.8 PBS): 1388.16 ± 90.95 µg/mL | equilibrium solubility ([4]; pH 7.4 PBS): 4507.97 ± 487.04 µg/mL | water dissolution rate [5]: 6.5 µg/mL | LogP ([6]; buffer pH 2.0): ∞ | LogP ([6]; buffer pH 4.5): 4.19 | LogP ([6]; buffer pH 5.0): 3.80 | LogP ([6]; buffer pH 6.0): 2.52 | LogP ([6]; buffer pH 6.8): 0.98 | LogP ([6]; buffer pH 7.4): 0.11 | absolute bioavailability ([7]; based on AUC0-t of crude drug): 56.8% | absolute bioavailability ([7]; based on AUC0-t of total main metabolites in vivo): 93.0%
